Measurements: patent publication US7354915B2 (Wyeth, priority 2003, dated 2008)
Values joined by “and” are separate entries in the source; they are usually repeats but may differ in a detail not shown here. Identical values can stand only once.

Experiments:
[1] = system: rat uterine decidualization; experiment: Rat decidualization assay; type: in vivo; details: ovariectomized female Sprague-Dawley rats; for Estimated average EC50 (decidual response) / EC50 for uterine weight (decidual response): s.c.; for Estimated average EC50 (decidual response): average of dose-response curves; for EC50 for uterine weight (decidual response): once daily for seven days, individual studies (Exp)
Description: B. Rat decidualization assay • 1. […] Methods: • a. […] The animals were treated once daily for seven days. […] Dosing • Doses were prepared based upon mg/kg mean group body weight. In all studies, a control group receiving vehicle was included. […] The contralateral horn was not scratched and served as an unstimulated control. Approximately 24 hours following the final treatment, rats were sacrificed by CO2 asphyxiation and body weight measured. Uteri were removed and trimmed of fat. Decidualized (D-horn) and control (C-horn) uterine horns were weighed separately. • 3.
Body weight: Mean total animal body weight (default-kg)
Decidual response: [(D−C)/C]×100%

T47D cells = experiment: T47D cell proliferation assay (BrdU incorporation); type: cell-based
Description: A. T47D cell proliferation assay • 1. Objective: • Determination of progestational and antiprogestational potency was performed by using a cell proliferation assay in T47D cells. A compound's effect on DAN synthesis in T47D cells was measured. • 2. Methods: • a. Reagents: • Growth medium: DMEM:F12 (1:1) (GIBCO, BRL) supplemented with 10% (v/v) fetal bovine serum (not heat-inactivated), 100 U/mL penicillin, […] streptomycin, and 2 mM GlutaMax (GIBCO, BRL). • Treatment medium: Minimum Essential Medium (MEM) (#51200-038GIBCO, BRL) phenol red-free supplemented with 0.5% charcoal stripped fetal bovine serum, 100 U/mL penicillin, […] streptomycin, and 2 mM GlutaMax (GIBCO, BRL). • b. Cell Culture: • Stock T47 D cells were maintained in growth medium. For BrdU incorporation assay, cells were plated in 96-well plates (Falcon, Becton Dickinson Labware) at 10,000 cells/well in growth medium. […] Cell Proliferation Assay: • At the end of BrdU labeling, the medium was removed and BrdU incorporation was measured using a cell proliferation ELISA kit (#RPN 250, Amersham Life Science) according to manufacturer's instructions. […] Then 25 μL of 1 M sulfuric acid was added to each well to stop color reaction and optical density read in a plate reader at 450 nm within 5 minutes. • 3. […] EC50 or IC50 values were calculated from the retransformed values. […]

| Estimated average EC50 (decidual response) [1] | Compound | EC50 for uterine weight (decidual response) [1] | further results |
| --- | --- | --- | --- |
| 0.10 mg/kg, s.c. | C#C[C@]1(O)CC[C@H]2[C@@H]3CCC4=CC(=O)CC[C@@H]4[C@H]3C(=C)C[C@@]21CC [3-Ketodesogestrel] | 0.10 mg/kg, s.c. and 0.06 mg/kg, s.c. and 0.11 mg/kg, s.c. |  |
| 0.10 mg/kg, s.c. | C#C[C@]1(O)CC[C@H]2[C@@H]3CCC4=CC(=O)CC[C@@H]4[C@H]3CC[C@@]21CC [Levonorgestrel] | 0.08 mg/kg, s.c. and 0.12 mg/kg, s.c. and 0.09 mg/kg, s.c. (2×) |  |
|  | CC(=O)O[C@]1(C(C)=O)CC[C@H]2[C@@H]3C[C@H](C)C4=CC(=O)CC[C@]4(C)[C@H]3CC[C@@]21C [MPA, medroxyprogesterone acetate] | 0.42 mg/kg, s.c. and 0.39 mg/kg, s.c. (2×) |  |
|  | CC(=O)[C@H]1CC[C@H]2[C@@H]3CCC4=CC(=O)CC[C@]4(C)[C@H]3CC[C@]12C [Progesterone] | 5.50 mg/kg, s.c. |  |
|  | CC#C[C@]1(O)CC[C@H]2[C@@H]3CCC4=CC(=O)CCC4=C3[C@@H](c3ccc(N(C)C)cc3)C[C@@]21C [RU486] |  | IC50 (T47D cells; read-out: IC50 (half-maximal decrease in trimegestone induced BrdU incorporation), antagonist mode in the presence of 0.03 nM trimegestone, individual studies (Exp)): 0.016 nM and 0.018 nM; IC50 for uterine weight (decrease in EC50 progesterone induced decidual response) ([1]; p.o., with progesterone 5.6 mg/kg, individual studies (Exp.)): 0.21 mg/kg, p.o. and 0.14 mg/kg, p.o. |
|  | C[C@H](O)C(=O)[C@@]1(C)CC[C@H]2[C@@H]3CCC4=CC(=O)CCC4=C3CC[C@@]21C [Trimegestone] |  | EC50 (T47D cells; agonist mode, individual studies (Exp), read-out: EC50 (half-maximal increase in BrdU incorporation)): 0.017 nM and 0.014 nM and 0.019 nM |
